In US8221736B2, “Semiochemical” (Rothamsted Research Limited, priority 1999, dated 2012):
Marks after values point to notes of the source that are not given here.

What was measured:
[1] = tested on: aphid parasitoid Aphidius ervi; assay: Wind tunnel single choice test of A. ervi with synthetic compounds on filter paper; type: in vivo; details: 10 μg on filter paper, hexane control 26.7
Description: Since semiochemicals acting as repellents or inhibitors of host attractancy for herbivorous insects are often involved in predation or parasitism, the activity of cis-jasmone was also investigated at higher trophic levels. […] These experiments indicate a behavioural role for cis-jasmone in influencing interactions between plants, herbivorous insects and their predators and parasitoids. Naive female A. ervi were flown in a wind tunnel, as described in J. Chem. Ecol. 16, 381-396 (1996) (Poppy et al.). The parasitoids were released 25 cm downwind (single choice tests) or 40 cm downwind (dual choice test) of the target, which was either a plant or a synthetic compound (10 μg in 10 μl hexane) placed on a 2×1 cm strip of filter paper (Whatman No. 1) surrounded by a ring of green crêpe paper. The proportions of parasitoids responding with an oriented flight to the synthetic chemicals were calculated each day on 3 separate days. These values were then subjected to a logit transformation to normalize the data before being analysed by ANOVA followed by Tukey post-hoc tests. The number of parasitoids orienting upwind to the single plant target were recorded and subjected to a χ^2 contingency test (Pearson method on Genstat—see Genstat 5 Committee. Genstat 5 Reference Manual, Release 3 (Clarendon Press, Oxford, 1993)) to determine whether an orienting response was linked to the type of plant treatment. The numbers orienting to each plant in the dual choice test were analysed by a χ^2 to determine whether one plant was more attractive than the other.

[2] = tested on: grain aphid, Sitobion avenae; details: J. Chem. Ecol. 20 (1994), Pettersson et al., Hardie et al.; cited from earlier work
[3] = tested on: black bean aphid, Aphis fabae; details: J. Chem. Ecol. 20 (1994), Pettersson et al., Hardie et al.; cited from earlier work
[4] = tested on: D251 sequence in Vicia faba plants; assay: Differential display and northern blot of gene-specific sequence D251; type: in vivo; details: northern blot, versus air
Method: Total RNA was isolated from stem or leaf tissue of plants exposed to air, methyl jasmonate or cis-jasmone. 10 μg RNA per sample was loaded and separated on a formaldehyde gel (Panel A). The samples were then transferred to a nylon membrane and probed with the D251 sequence (Panel B). Lane 1=air treatment (control); lane 2=cis-jasmone treatment; lane 3=methyl jasmonate treatment. In the case of RNA isolated from leaf tissue, only cis-jasmone treatment results in upregulation. In order to determine if cis-jasmone was capable of inducing alterations in plant gene expression, the sensitive technique of differential display was carried out on RNA extracted from plants which had been exposed to air, methyl jasmonate or cis-jasmone. […] To confirm this observation, bands of interest were recovered by excision from the dried gel and re-amplified with the appropriate pair of oligonucleotide primers. The resulting PCR products were cloned and sequenced to confirm the homogeneous nature of the amplified product. These sequences were then used to probe RNA isolated from control or treated V. faba plants. […] It is important to note that the nature of the differential display technique generates short gene-specific probes, containing mainly 3′ untranslated regions of transcribed sequences, and therefore the functional part of the differentially expressed gene is unknown. Thus, using differential display and confirmatory northern blotting, we have shown that methyl jasmonate and cis-jasmone have apparently distinct effects on plant gene expression. […] Thus, the two compounds have distinct effect on plant gene expression and the response to these signalling compounds may be tissue-specific.

[5] = tested on: broad bean, V. faba (cv The Sutton); assay: Induction of volatile release by bean plants (air entrainment, GC/GC-MS); type: in vivo, Vicia faba; details: 24 hour exposure at 100 μg/l in air; 48 hour entrainments
Method: A possible role for the compound as an airborne plant signal was investigated using the broad bean, V. faba (cv The Sutton). Plants were kept for 24 hours in clean air or in air incorporating cis-jasmone at 100 μg/l; subsequently, samples of volatiles released by the plants were obtained by entrainment over 4 periods of 48 hours, i.e. up to 192 hours after the end of the treatment. The cis-jasmone itself was undetectable after 48 hours. […] There was also, from some replicates, enhancement of (E,E)-α-farnesene, (−)-β-caryophyllene and (E)-4,8-dimethyl-1,3,7-nonatriene. These compounds have all been implicated in herbivorous insect-induced production and increased parasitoid foraging. The nonatriene can also be produced innately by plants imitating damage for defence against herbivores and which are thus attractive to parasitoids.
Bean plants, V. faba (cv The Sutton) were grown under standard glasshouse conditions until the 2-4 leaf stage when they were rinsed free of soil and transplanted into baked glass jars containing washed sand, with 3 plants per jar. These were left for 1-2 days to acclimatize. Plants to be treated (three jars of three plants each) were sealed in a 25 l glass tank for 24 hours with either cis-jasmone or methyl jasmonate (2.5 mg) applied to a piece of filter paper (Whatman No. 1) placed on the floor of the tank. […]

## C=C/C(C)=C/CC=C(C)C [(E)-β-ocimene]
[1]
  % showing oriented flight: 48.8^a %

## C=C/C(C)=C/C/C=C(\C)CCC=C(C)C [(E,E)-α-farnesene]
[1]
  % showing oriented flight: 60.9^a %

## COC(=O)c1ccccc1O [Methyl salicylate]
[2]
  behavioural effect on cereal aphids including the grain aphid: repelling
[3]
  behavioural effect on black bean aphid: repelling

## CC/C=C\CC1C(=O)CCC1CC(=O)OC (stereo not shown) [methyl jasmonate, reference compound]
[4]; RNA from leaf tissue of plants exposed to vapour
  expression of D251 sequence in leaf tissue: only cis-jasmone brought about an increase
[4]; RNA from stem tissue of plants exposed to vapour
  expression of D251 sequence in stem tissue: upregulated to a similar level
[5]
  effect on levels of (E)-β-ocimene released: did not significantly increase
